Measurements as given in US8957098B2 (ALGIAX Pharmaceuticals GmbH, priority 2010, dated 2015).

Key:
[1] = test system: severe spinal cord contusion injury in the rat; test: BBB open field locomotor rating scale after severe spinal cord contusion injury; format: in vivo; details: Example 2; 20 mg/kg/day by gavage for 7 days; effect distinct from DPO 7 to DPO 63 (ANOVA-RM p=0.002); vehicle 8.3
Description: The BBB score is scaled from 0 to 21 points, a BBB score of 0 represents a complete paralysis of the hind limbs and a BBB score of 21 represents normal locomotion. […]
The BBB locomotor rating scale was used according to the present disclosure to assess general locomotor performance. The score was assessed before injury and at 1, 3, 5, 7, 14, 21, 35, 42, 49, 56 and 63 days post operation (dpo) by 2 blinded observers.

[2] = test system: severe spinal cord contusion injury in the rat; test: Explorative rearing test after severe spinal cord contusion injury; format: in vivo; details: Example 1; 20 mg/kg/day by gavage for 7 days
Description: Thirteen week-old female Lewis rats (Charles River, Sulzfeld Germany) were housed under a 12:12 h dark/light regime and allowed free access to water and food. After one week of habituation the animals underwent general anesthesia with a mixture of isoflurane and air (induction: 5% isoflurane, maintenance: 2.2% isofluorane). A Th10 laminectomy was performed without rupturing the dura and a severe contusive SCI (25 gem NYU/MASCIS II impactor) {Gruner, 1992 #3} was induced. After suturing muscle and skin, a subcutaneous (s.c.) injection of 5 ml of Ringers Lactate was given. Bladders were emptied manually 2 times a day until spontaneous voiding returned (usually within 1 week). The lesion severity was verified by the impact velocity and contusion depth of the impactor rod. Animals with an impact velocity error >5% were excluded from further analysis. After injury, individual rats were randomly assigned into a treatment group. The following groups were used:
When placed in a Plexiglas cylinder (18 cm diameter×35.0 cm height), animals spontaneously rear and contact the walls with their forepaws. Numbers, duration and types of rears were analyzed during the 3-min recorded observation period in the cylinder (Himes et al., 2006; Shumsky et al., 2003). A mirror was placed at an angle behind the cylinder so that the forelimbs could be viewed at all times. The testing session was videotaped, and rearing behaviour was scored blindly at a later date.
Different types of rears of increasing heights were observed: • LEVEL 1: Crouch—Animals lifted both forepaws off the ground up to 10 cm; • LEVEL 2: Rear—Animals reared and extended the trunk with the hindlimbs flexed reaching a height between 10 and 15 cm; • LEVEL 3: Stand—Animals reared and extended the trunk with the hindlimbs extended reaching a height over 15 cm.
Occasionally an animal progressed through several types of rears before touching down, in which case the time the animal spend in each rearing height was measured by counting the single video frames. […]

## Cc1cc(NC(=O)/C(C#N)=C(\O)C2CC2)ccc1C(F)(F)F [HR325, 1(3-methyl-4-trifluoromethylphenyl-carbamoyl)-2-cyclopropyl-2oxo-propionitrile]
[1]
  BBB score at steady state: around 10

## Cc1oncc1C(=O)Nc1ccc(C(F)(F)F)cc1 [Leflunomide, N-(4-trifluoromethylphenyl)-5-methylisoxazol-4-carboxamide]
[2]
  exploring time of healthy control animals at LEVEL 3 (>15 cm) compared with treated animals: significantly longer
  rearing attempts (time and height reached by forepaws) vs vehicle control animals: longer in time and that the forepaws reached higher levels
  significantly less time in LEVEL 2 (10-15 cm) when compared to healthy control animals: this is not the case
